# Test results taken from patent publication US9937260B2, “Curcumin conjugates for treating and preventing cancers” (BOARD OF SUPERVISORS OF LOUISIANA STATE UNIVERSITY AND …, priority 2008, dated 2018).
# Non-standard residues stand in square brackets, D forms with d. Residues, ends and D or L forms follow the SMILES beside them. pGlu = O=C1CC[C@@H](C(=O)O)N1
# Key:
# caspase-3/7 = experiment: Apo-ONE homogenous caspase-3/7 assay in MIAPaCa-2 cells; format: cell-based, human; settings: 5 μM, 24 hours, p<0.05, FIG. 6
# Description: We also directly measured the effect of LHRH-curcumin on caspase 3 enzyme activity with the Apo-ONE homogenous caspase-3/7 assay kit (Promega, Madison, Wis.). This assay uses a profluorescent substrate with an optimized, bifunctional cell lysis/activity buffer. MIAPaCa-2 cells were treated in triplicate (10,000 cells per well) with the free peptide LHRH, or with the LHRH-Curcumin conjugate, in each case at a 5 μM concentration, and incubated for 24 hours. Following the 24 hour incubation, the Apo-ONE homogenous caspase-3/7 assay was performed according to the manufacturer's protocol. The buffer and 100 μL Apo-ONE caspase-3/7 assay reagent were mixed and added to the samples. Cells were then incubated for an additional hour prior to fluorescence measurements. Upon sequential cleavage and removal of the Asp-Glu-Val-Asp peptide (SEQ ID NO. 10) by caspase-3/7 activity, the rhodamine 110 leaving group became intensely fluorescent with excitation at 499 nm and an emission maximum at 512 nm. The excitation/emission was recorded on a FlexStation (Molecular Devices, Sunnyvale, Calif.) with softMax Pro version 4.8 software. The experiment was conducted in duplicate. Statistical significance was determined by a two-tailed Students t-test, using GraphPad Prism software version 5.0.
# [1] = test system: MIAPaCa-2, BxPC-3 and PANC-1 pancreatic cancer cells; experiment: Modified MTT cytotoxicity assay; format: cell-based, human
# Description: Pancreatic cell lines MIAPaCa-2, BxPC-3, and PANC-1 were obtained from the American Type Culture Collection. All cell lines were cultured in DMEM supplemented with 10% FBS, 100 units/mL penicillin, and 100 μg/mL streptomycin. The presence and location of LHRH-receptors in these pancreatic cancer cell lines was determined by immunochemical methods.
# The cytotoxicity of the peptides was determined with a modified MTT (3-(4, 5-dimethylthiazol-2-yl)-2, 5-diphenyltetrazolium bromide) assay. Briefly, MIAPaCa-2, BxPC-3 and PANG-1 cells (2000/well) were separately incubated in 96-well plates in triplicate in a cell growth medium with different concentrations of LHRH, LHRH-Curcumin, Curcumin, and LHRH-Phor21. Three wells served as controls, each receiving an equivalent volume of medium. After 24 hours, an MTT solution (5 mg/ml in PBS) was added to each well and incubated for 2 hours at 37° C., followed by extraction with buffer (20% SDS and 50% dimethylformamide). The cells were incubated overnight at 37° C. Optical absorbance of the cell suspension was then measured at 590 nm using an MRX Revelation 96-well multiscanner (Dynex Technologies, Chantilly, Va.). From these measurements the IC50 doses of the peptides were calculated. […] Values given are mean±SD of triplicate cultures.
# [2] = test system: advanced pancreatic cancer; settings: cited from earlier work
# [3] = test system: luciferase-transfected MIAPaCa-2 xenograft tumors; experiment: Human pancreatic cancer xenograft in female athymic nude mice; format: in vivo
# Text: MIAPaCa-2, a cell line expressing the LHRH receptor, was then used for in vivo experiments. We stably transfected MIAPaCa-2 cells with a gene encoding luciferase. We used the transfected cells to produce a pancreatic cancer xenograft mouse model.
# Forty-eight female nude mice (athymic Balb/c, 4-5 weeks old) were obtained from a commercial vendor (Charles River Laboratories, Wilmington, Mass.), and caged individually in a room maintained at constant temperature and humidity under a 12-h light and darkness cycle, and fed a regular, autoclaved chow diet with water ad libitum. […]
# After the tumors were established (100-250 mm^3), the 48 mice were randomized into six different treatment groups (n=8 mice per group): (1) LHRH alone, (2) LHRH-Curcumin, (3) LHRH-Phor21, (4) unconjugated LHRH and Phor21, (5) vehicle control, and (6) a control group of tumor-bearing mice that were necropsied before treatment (baseline controls). […] Tumor volumes and mice body weights were measured twice weekly, and mice were necropsied one week after the last treatment. At necropsy, tumors, ovaries, kidneys, pancreases, lungs, spleen, several bones, and liver were removed and weighed, and metastastic cell numbers were measured by luciferase assay. The tumor volumes and weights were analyzed by one-way ANOVA, and compared among groups using an unpaired Student's t-test. […]
compound,measurement,setting,value
pGlu-His-Trp-Ser-Tyr-Gly-Leu-Arg-Pro-Gly [LHRH],caspase-3/7 activity,caspase-3/7,significantly increased
"COc1cc(/C=C/C(=O)CC(=O)/C=C/c2ccc(O)c(OC)c2)ccc1O [Curcumin, diferuloylmethane]",inhibition of proliferation of pancreatic cancer cells,"[1]; 24 hours, MTT, FIGS. 2(A)-2(C)",inhibited the proliferation of pancreatic cancer cells
same,bioavailability,[2]; oral administration,poor bioavailability
same,patients with clinical biological activity,"[2]; oral, advanced pancreatic cancer",2 of 21
CC(C)C[C@H](NC(=O)CNC(=O)[C@H](Cc1ccc(O)cc1)NC(=O)[C@H](CO)NC(=O)[C@H](Cc1c[nH]c2ccccc12)NC(=O)[C@H](Cc1c[nH]cn1)NC(=O)[C@@H]1CCC(=O)N1)C(=O)N[C@@H](CCCNC(=N)N)C(=O)N1CCC[C@H]1C(=O)NCC(=O)N[C@@H](CCCCN)C(=O)N[C@@H](Cc1ccccc1)C(=O)N[C@@H](C)C(=O)N[C@@H](CCCCN)C(=O)N[C@@H](Cc1ccccc1)C(=O)N[C@@H](C)C(=O)N[C@@H](CCCCN)C(=O)N[C@@H](CCCCN)C(=O)N[C@@H](Cc1ccccc1)C(=O)N[C@@H](C)C(=O)N[C@@H](CCCCN)C(=O)N[C@@H](Cc1ccccc1)C(=O)N[C@@H](C)C(=O)N[C@@H](CCCCN)C(=O)N[C@@H](CCCCN)C(=O)N[C@@H](Cc1ccccc1)C(=O)N[C@@H](C)C(=O)N[C@@H](CCCCN)C(=O)N[C@@H](Cc1ccccc1)C(=O)N[C@@H](C)C(=O)N[C@@H](CCCCN)C(=O)O [LHRH-Phor21] ([pGlu]HWSYGLRPGKFAKFAKKFAKFAKKFAKFAK-OH; C-terminus assumed),mice body weights as indicators of potential toxicity,[3]; FIG. 5(D),not significantly different from control
same,side effects,[3]; tail vein injections,some inflammation was seen in the mice tails at the site of injections
same,relative cytotoxicity,[1],greater cytotoxicity than that of LHRH-Curcumin
